Reference: patent US20060100226A1, “2-Thiopyrimidinones as therapeutic agents” (priority 2004, published 2006)

molecular target: T1, murine MEKK2 (mMEKK2) (Mus musculus, UniProt Q61083); assay: TR-FRET kinase assay (mMEKK2/MBP); assay type: biochemical; settings: substrate biotin MBP, 60 minutes at room temperature
T1 sequence (Q61083 1-619): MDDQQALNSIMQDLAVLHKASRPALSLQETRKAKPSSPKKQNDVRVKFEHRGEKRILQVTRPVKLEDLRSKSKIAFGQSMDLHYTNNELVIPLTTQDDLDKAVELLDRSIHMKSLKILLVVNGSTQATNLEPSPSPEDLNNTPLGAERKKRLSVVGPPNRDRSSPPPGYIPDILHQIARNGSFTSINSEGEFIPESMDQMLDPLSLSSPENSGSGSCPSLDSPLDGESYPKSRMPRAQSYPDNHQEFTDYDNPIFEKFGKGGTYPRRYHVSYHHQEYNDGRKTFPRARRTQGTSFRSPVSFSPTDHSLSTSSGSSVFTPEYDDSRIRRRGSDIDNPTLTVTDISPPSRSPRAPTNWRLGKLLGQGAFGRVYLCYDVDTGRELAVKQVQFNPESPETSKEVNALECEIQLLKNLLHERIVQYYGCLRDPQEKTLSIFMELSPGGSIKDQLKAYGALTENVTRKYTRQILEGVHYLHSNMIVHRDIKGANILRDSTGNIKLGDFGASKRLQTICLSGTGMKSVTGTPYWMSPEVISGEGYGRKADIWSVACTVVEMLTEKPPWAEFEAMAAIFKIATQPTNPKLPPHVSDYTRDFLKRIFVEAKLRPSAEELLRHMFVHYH
Method: In one approach, MEKK2 inhibitory activity of compounds of the invention can be assessed using the time-resolved Fluorescence Resonance Energy Transfer (TR-FRET) assay detailed in Example 5. In this assay, the excitation energy of one fluorescent molecule (the donor) is transferred by a resonance mechanism to a nearby second fluorescent molecule (the acceptor), which then releases its fluorescent energy through fluorescent emission. This fluorescent energy is measured using a time-resolved fluorescence measurement protocol (LANCE high count 615/665); excitation occurred with 1,000 flashes at 325 nm, measurement was delayed by 100 μs, and data were acquired for 50 μs at 615 and 665 nm.
A TR-FRET kinase assay was used to screen potential inhibitors of MEKK2. The assay was performed as follows: Compounds to be tested were weighed and solubilized in DMSO (Sigma) to a stock concentration of 10 mM. Serial dilutions starting from 1 mM were prepared with additional DMSO. These dilutions were further diluted to 250 μM in kinase reaction buffer [20 mM Hepes pH 7.5, 5 mM MgCl2, 1 mM DTT (Dithiothreitol-Sigma), 1 mM NaVO4 (sodium vanadate-Sigma). A 25 μl aliquot of this solution was transferred to a black 96-well nonbinding surface microplate (Fisher). A stock aliquot containing […] of murine MEKK2 (mMEKK2) was diluted in the kinase reaction buffer and incubated with the compounds on the microplate for 10 minutes. A 25 μl aliquot of a 138 ng solution of biotin MBP (myelin basic protein—Upstate Biotechnology) was added to the reaction followed by 25 ul of a 25 ng solution of anti-phospho MBP antibody (Upstate Biotechnology) diluted in kinase reaction buffer. Finally an aliquot (50 μl) of a 5 uM solution of ATP (adenosine triphosphate) was added and the reaction was allowed to proceed for 60 minutes at room temperature. The reaction was stopped by the addition of 50 μL of a 12.5 ng solution of europium labeled anti-mouse IgG (Perkin Elmer) and 45 ng of Cy5 labeled streptavidin (Jackson Immunoresearch) in termination buffer (20 mM Hepes pH 7.5, 100 mM EDTA; Sigma). The assay was allowed to equilibrate for 45 minutes before placing the plate on the Victor™ plate reader. The plate was read using the 615/665 LANCE protocol.

IC50 | Structure (SMILES)
< 1 µM | COc1cccc(-c2nc(SCc3cccc(NCc4ccc(-c5cccs5)s4)c3)[nH]c(=O)c2C#N)c1 [Example 1aa]
< 20 µM | COc1cc(CNc2cccc(CSc3nc(-c4cccc(OC)c4)c(C#N)c(=O)[nH]3)c2)cc(OC)c1 [Example 1e]
< 5 µM | COc1cccc(-c2nc(SCc3cccc(NCc4coc5cc(C)cc(C)c5c4=O)c3)[nH]c(=O)c2C#N)c1 [Example 1f]
< 20 µM | COc1cccc(-c2nc(SCc3cccc(NCc4cccn4CCC#N)c3)[nH]c(=O)c2C#N)c1 [Example 1l]
< 40 µM | COc1cccc(-c2nc(SCc3cccc(NCc4ccc(OC)nc4)c3)[nH]c(=O)c2C#N)c1 [Example 1n]
> 40 µM | COc1cccc(-c2nc(SCc3cccc(NCC4CCOCC4)c3)[nH]c(=O)c2C#N)c1 [Example 1o]
< 1 µM | COc1cccc(-c2nc(SCc3cccc(NCc4ccc(-c5cc(C(F)(F)F)n(C)n5)s4)c3)[nH]c(=O)c2C#N)c1 [Example 1q]
< 10 µM | COc1cccc(-c2nc(SCc3cccc(NCc4c(C(F)(F)F)nn(C)c4Cl)c3)[nH]c(=O)c2C#N)c1 [Example 1s]
< 5 µM | COc1cccc(-c2nc(SCc3cccc(NCc4ccc(N(C)C)c(C#N)c4F)c3)[nH]c(=O)c2C#N)c1 [Example 1t]
< 1 µM | COc1cccc(-c2nc(SCc3cccc(NCc4c[nH]c5ccc(Cl)cc45)c3)[nH]c(=O)c2C#N)c1 [Example 1x]
< 40 µM | COc1cccc(-c2nc(SCc3cccc(NCc4cnc(N(C)C)nc4)c3)[nH]c(=O)c2C#N)c1 [Example 1z]
< 5 µM | COc1cccc(-c2nc(SCc3ccc(NC(=O)c4sccc4Cl)cc3)[nH]c(=O)c2C#N)c1 [Example 2aaa]
< 5 µM | COc1cccc(-c2nc(SCc3ccc(NC(=O)c4cccc(OC(F)(F)F)c4)cc3)[nH]c(=O)c2C#N)c1 [Example 2ddd]
< 10 µM | COc1cccc(CC(=O)Nc2cccc(CSc3nc(-c4cccc(OC)c4)c(C#N)c(=O)[nH]3)c2)c1 [Example 2f]
< 5 µM | COc1cccc(-c2nc(SCc3ccc(NC(=O)c4cnn(-c5ccccc5)c4C(F)(F)F)cc3)[nH]c(=O)c2C#N)c1 [Example 2fff]
< 5 µM | COc1cccc(-c2nc(SCc3ccc(NC(=O)c4ccc(C(F)(F)F)cc4C(F)(F)F)cc3)[nH]c(=O)c2C#N)c1 [Example 2ggg]
< 20 µM | COc1cccc(-c2nc(SCc3ccc(NC(=O)C4CCN(C(C)=O)CC4)cc3)[nH]c(=O)c2C#N)c1 [Example 2jjj]
< 5 µM | COc1cccc(-c2nc(SCc3ccc(NC(=O)c4ccc(-c5ccccn5)s4)cc3)[nH]c(=O)c2C#N)c1 [Example 2lll]
< 5 µM | COc1cccc(-c2nc(SCc3cccc(NC(=O)c4cc5ccccc5s4)c3)[nH]c(=O)c2C#N)c1 [Example 2m]
< 40 µM | COc1cccc(-c2nc(SCc3ccccc3NC(=O)c3ccccc3)[nH]c(=O)c2C#N)c1 [Example 2nnn]
> 40 µM | COc1cccc(-c2nc(SCc3ccccc3NC(=O)c3cccc(C(F)(F)F)c3)[nH]c(=O)c2C#N)c1 [Example 2ooo]
< 5 µM | COc1cccc(-c2nc(SCc3cccc(NC(=O)c4cc(Cl)cc(Cl)c4)c3)[nH]c(=O)c2C#N)c1 [Example 2p]

Continued, compound first:

Structure (SMILES) | IC50
COc1cccc(-c2nc(SCc3cccc(NCc4cccc(Oc5ccccc5)c4)c3)[nH]c(=O)c2C#N)c1 [Example 1bb] | < 1 µM
COc1cccc(-c2nc(SCc3cccc(NCc4cccc(Oc5cccc(C(F)(F)F)c5)c4)c3)[nH]c(=O)c2C#N)c1 [Example 1dd] | < 1 µM
COc1cccc(-c2nc(SCc3cccc(NCc4nc5ccccc5n4C)c3)[nH]c(=O)c2C#N)c1 [Example 1g] | < 40 µM
COc1cccc(-c2nc(SCc3cccc(NCc4ccccc4N4CCOCC4)c3)[nH]c(=O)c2C#N)c1 [Example 1h] | < 5 µM
COc1cccc(-c2nc(SCc3cccc(NCc4ccc(N5CCCCC5)cc4)c3)[nH]c(=O)c2C#N)c1 [Example 1i] | < 10 µM
COc1cccc(-c2nc(SCc3cccc(NC[C@H]4CCCN4C(=O)OC(C)(C)C)c3)[nH]c(=O)c2C#N)c1 [Example 1j] | < 20 µM
COc1cccc(-c2nc(SCc3cccc(NCc4ccc(Oc5cnccn5)cc4)c3)[nH]c(=O)c2C#N)c1 [Example 1m] | < 20 µM
COc1cccc(-c2nc(SCc3cccc(NCc4ccc(-n5ccnc5)cc4)c3)[nH]c(=O)c2C#N)c1 [Example 1r] | < 20 µM
COc1cccc(-c2nc(SCc3cccc(NCc4ccc(C#N)cc4)c3)[nH]c(=O)c2C#N)c1 [Example 1u] | < 10 µM
COc1cccc(-c2nc(SCc3cccc(NCc4cc(C)c(C)o4)c3)[nH]c(=O)c2C#N)c1 [Example 1w] | < 5 µM
COc1cccc(-c2nc(SCc3cccc(NCc4ccc5nsnc5c4)c3)[nH]c(=O)c2C#N)c1 [Example 1y] | < 10 µM
COc1cccc(-c2nc(SCc3cccc(NC(=O)c4cccc(Cl)c4)c3)[nH]c(=O)c2C#N)c1 [Example 2a, 3-Chloro-N-{3-[5-cyano-4-(3-methoxy-phenyl)-6-oxo-1,6-dihydro-pyrimidin-2-ylsulfanylmethyl]-phenyl}-benzamide] | < 5 µM
COc1cccc(-c2nc(SCc3cccc(NC(=O)c4ccc(C)cc4)c3)[nH]c(=O)c2C#N)c1 [Example 2b] | < 5 µM
CCCc1c(C(=O)Nc2ccc(CSc3nc(-c4cccc(OC)c4)c(C#N)c(=O)[nH]3)cc2)cnn1-c1ccc(Cl)cc1 [Example 2bbb] | < 1 µM
COc1cccc(-c2nc(SCc3cccc(NC(=O)c4ccccc4)c3)[nH]c(=O)c2C#N)c1 [Example 2c] | < 5 µM
COc1cccc(-c2nc(SCc3cccc(NC(=O)c4ccc5ccccc5c4)c3)[nH]c(=O)c2C#N)c1 [Example 2d] | < 5 µM
COc1cccc(-c2nc(SCc3cccc(NC(=O)CCc4ccccc4)c3)[nH]c(=O)c2C#N)c1 [Example 2e] | < 5 µM
COc1cccc(-c2nc(SCc3ccc(NC(=O)c4cc(C(F)(F)F)cc(Cl)c4F)cc3)[nH]c(=O)c2C#N)c1 [Example 2eee] | < 5 µM
COc1cccc(-c2nc(SCc3cccc(NC(=O)c4cccc(C(F)(F)F)c4)c3)[nH]c(=O)c2C#N)c1 [Example 2g] | < 5 µM
COc1cccc(-c2nc(SCc3ccc(NC(=O)c4snnc4C)cc3)[nH]c(=O)c2C#N)c1 [Example 2hhh] | < 40 µM
COc1cccc(-c2nc(SCc3ccc(NC(=O)C4=Cc5cc(Cl)ccc5OC4)cc3)[nH]c(=O)c2C#N)c1 [Example 2iii] | < 5 µM
COc1cccc(-c2nc(SCc3cccc(NC(=O)COc4ccc(Cl)cc4)c3)[nH]c(=O)c2C#N)c1 [Example 2j] | < 5 µM
COc1cccc(-c2nc(SCc3cccc(NC(=O)Cc4ccccc4)c3)[nH]c(=O)c2C#N)c1 [Example 2k] | < 10 µM
COc1cccc(-c2nc(SCc3ccc(NC(=O)c4cc(C(F)(F)F)cc(C(F)(F)F)c4)cc3)[nH]c(=O)c2C#N)c1 [Example 2kkk] | < 5 µM
COc1cccc(-c2nc(SCc3cccc(NC(=O)Cc4ccc(Cl)cc4)c3)[nH]c(=O)c2C#N)c1 [Example 2l] | < 5 µM
COc1cccc(-c2nc(SCc3ccccc3NC(=O)Cc3ccccc3)[nH]c(=O)c2C#N)c1 [Example 2mmm] | < 40 µM
COc1cccc(-c2nc(SCc3cccc(NC(=O)c4ccc5c(c4)OCO5)c3)[nH]c(=O)c2C#N)c1 [Example 2o] | < 5 µM
COc1cccc(-c2nc(SCc3ccc(NC(=O)c4ccccc4)cc3)[nH]c(=O)c2C#N)c1 [Example 2pp] | < 20 µM
